A short description of data set [1]: physchem.
Description: (§1) The absorbance changes at 240 nm, 265 nm, 290 nm and 315 nm were recorded and the peak maxima of the 1st derivative plots determined. […] Compounds of known pKa were also determined as test solutes.
The nature of data set [2]: physchem. This is another data set of the same source.
Data set [3] in a line: pKa by continuous titration, linear pH gradient, apparatus of FIG. 2, 1st derivative peak time read from standards calibration curve. As to conditions: from standards calibration curve via time to peak maximum of 1st derivative, gradient over 4 minutes, FIG. 2 apparatus. The format is physicochemical. The protocol:
The following pKa determination experiment was performed on this apparatus.
The two buffers have a common component to which an acidic component is added to form buffer A and a basic component is added to form buffer B. The buffers were made up as follows:
The sample solution was kept constant at 20%. The HP1050 pump was used again with buffer B introduced via channel B and buffer A via channel C. The flow rate of the test mixture stream from the mixer to the detector was 1 cm^3 min^−1.
The calibration results are set out below: Time to peak maximum is from the start of the instrument cycle (when the autosampler first goes into a new sample container).

The conditions of data set [4]: test solutes; potentiometric titration on Sirius PCA 101 instrument in 0.15 KCl.
Description: as §1
For data set [5] the following is noted: Albert & Serjeant, 1984; corrected for an ionic strength of 0.15 M; cited from earlier work.
Data set [6] can be described thus: pKa by continuous titration, apparatus of FIG. 8, optimised buffers, TFA or 1st derivative data processing. The following applies: for pKa (1st Deriv.): first derivative method.
The conditions of data set [7]: cited from earlier work.
Where [8] appears, read: run with calibration curve pH=−0.022×time+12.66.

The values that follow come from US6913930B2, “Analytical method and apparatus therefor involving continuous titration” (Glaxo Wellcome Inc., priority 1997, dated 2005).

Molecules are shown by their SMILES. Values joined by “and” are separate entries in the source; they are usually repeats but may differ in a detail not shown here. Equal values may be shown once. Marks after values point to notes of the source that are not given here.

The molecule `O=C(O)c1ccccc1C(=O)O` [phthalate 1, potassium hydrogen phthalate] displayed a pKa in “physchem [1]” of 4.82.
`O=C1OC(c2ccc(O)cc2)(c2ccc(O)cc2)c2ccccc21` [Phenolphthalein] registered a pKa in the data set “physchem [2]” of 8.84 ± 0.05.
As to `N#Cc1ccc(O)cc1` [4-CN phenol], in data set [3], the “pKa Derived” value was 7.62 and 7.58. Besides, the “Known pKa” value in data set [4] amounted to 7.7.
For `Nc1cccc(C(=O)O)c1` [3-Aminobenzoic acid], the pKa in the data set “physchem [2]” stood at 3.39 ± 0.08.
Still for that read-out and setting: as for `CC(C)NCC(O)c1ccc(NS(C)(=O)=O)cc1` (centres unmarked) [Sotalol], the figure is 7.96 ± 0.03.
Regarding `O=C(O)/C=C/c1ccccc1` [Trans-cinnamic acid], in “physchem [2]”, the pKa was found to be 4.15 ± 0.01. Besides, in data set [5], the “pKa (lit. data)” value is reported as 4.20^b.
As to `Oc1cccc(Cl)c1` [3-Cl phenol], the “pKa Derived” value in data set [3] is 8.79 and 8.78. For the same molecule, in data set [4], the “Known pKa” value is listed as 8.81.
`O=C(O)C/C=C/c1ccccc1` [Trans-styrylacetic acid] gave a pKa in “physchem [2]” of 4.57 ± 0.05.
The molecule `NCCCn1ccnc1` [1-(3-Aminopropyl)imidazole, 1-(3-Aminopropyl) imidazole] had a pKa in “physchem [2]” of 5.73 ± 0.08. For the same molecule, in data set [6] (setting [8]), the “pKa (1st Deriv.)” value was 5.81 ± 0.40.
For `Oc1ccccc1Cl` [2-Cl phenol], the “pKa Derived” value in data set [3] is 8.15 and 8.16. In addition, in data set [4], the “Known pKa” value was 8.24.
`NCCc1c[nH]c2ccccc12` [Tryptamine] showed a pKa in “physchem [2]” of 9.67 ± 0.03. The “pKa (1st Deriv.)” value in data set [6] (setting [8]) worked out at 10.05 ± 0.10.
With `NCCc1ccccc1` [Phenylethylamine], the pKa in “physchem [2]” was 9.64 ± 0.07.
With `Oc1ccc(Cl)cc1` [4-Cl phenol, 4-Chlorophenol], the pKa in data set [3] (buffered linear pH gradient (apparatus of FIG. 2), read-out: pKa Derived) was found to be 9.14; in “physchem [1]” (0.15 KCl solution), 9.14; in the data set “physchem [2]”, 9.03 ± 0.03. In addition, the “pKa Derived” value in data set [3] came out at 9.13. Moreover, the “pKa (1st Deriv.)” value in data set [6] (run with calibration curve pH=−0.021×time+12.49) is reported as 9.16 ± 0.08; in data set [6] (setting [8]), 9.25 ± 0.07. Also, in data set [6] (run with calibration curve pH=−0.022×time+12.66, target factor analysis), the “pKa (TFA)” value was found to be 9.04 ± 0.01.
In “physchem [2]”, `NCc1ccccc1` [Benzylamine] registered a pKa of 9.23 ± 0.1. The “pKa (lit. data)” value in data set [5] was 9.34^a.
The molecule `NCCc1c[nH]c2ccc(O)cc12` [Serotonin] came in with a pKa in “physchem [2]” of 10.09 ± 0.03. The “pKa (lit. data)” value in data set [5] is 9.80^a and 10.04^a. Moreover, in data set [6] (setting [8]), the “pKa (1st Deriv.)” value is on record as 10.03 ± 0.08.
In turn, `O=C(O)Cc1ccccc1` [Phenylacetic acid] displayed a pKa in “physchem [2]” of 4.34 ± 0.01. The “pKa (lit. data)” value in data set [5] is recorded as 4.07^b.
In “physchem [1]” (0.15 KCl solution), `O=[N+]([O-])c1ccc(O)cc1` [4-NO2phenol, p-nitrophenol] came in with a pKa of 6.89. In data set [7] (standards STD1, STD2 of Example 3), the “pKa (Standard Curve)” value is given as 6.869. The “pKa (calibration standards)” value in data set [7] (standards for calibration curves of the FIG. 8 runs) is on record as 6.869.

In general, pKa refers to the negative logarithm of the acid dissociation constant.
